Data on 5 molecules can be found in publication PMC8509398, “Proteolytic Cleavage of Bioactive Peptides and Protease-Activated Receptors in Acute and Post-Colitis” (International Journal of Molecular Sciences, 2021).

Residues, ends and D or L forms follow the SMILES beside them. *: point of attachment. AMC = Cc1cc(=O)oc2cc(N*)ccc12; Boc = CC(C)(C)OC(=O)*

In data set [1] the test system is T-cell transfer colitis mouse model. As to conditions: treated mice; cited from earlier work.
Data set [2] concerns the target T1, trypsin-3 (Homo sapiens, UniProt P35030).
T1 sequence (P35030 1-304): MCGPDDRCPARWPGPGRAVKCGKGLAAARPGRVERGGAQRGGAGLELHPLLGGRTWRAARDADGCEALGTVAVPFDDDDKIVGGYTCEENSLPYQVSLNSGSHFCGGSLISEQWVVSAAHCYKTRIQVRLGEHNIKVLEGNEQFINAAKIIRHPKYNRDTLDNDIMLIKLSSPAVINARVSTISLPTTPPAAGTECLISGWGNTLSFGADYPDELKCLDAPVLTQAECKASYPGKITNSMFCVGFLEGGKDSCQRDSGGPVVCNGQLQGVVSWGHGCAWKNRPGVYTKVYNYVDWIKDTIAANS
The data set is described as follows: Michaelis-Menten constant of fluorogenic substrates with trypsin-3. Particulars: trypsin-3 0.015 nM, range of substrate concentrations, 37 °C, fluorescence measured kinetically 20 min, Michaelis-Menten fit, experiment repeated twice. Also noted: made in house. It counts as biochemical. As to the method:
(§1) Preheated substrate was added to colonic lysate to start the reaction. Fluorescence was measured for 20 min at 37 °C on a Tecan Infinite F200 pro microtiter plate reader. A calibration curve with AMC (Sigma-Aldrich, Saint Louis, MO, USA) was used to determine activities in units per liter, where a unit is defined as the amount of enzyme that catalyzes the conversion of one micromole of the substrate per minute in the specific experimental conditions described. Activities were normalized to protein concentration determined with Bradford to obtain activities in units per gram protein. Km for trypsin-1, trypsin-2, trypsin-3 and thrombin with Boc-QAR-AMC and Tos-GPR-AMC were also determined (Figure S5).
(§2) Figure S 5: Michaelis-Menten constant (Km) for (a) trypsin-1, (b) trypsin-2, (c) trypsin-3 and (d) thrombin with Boc-QAR-AMC and Tos -GPR-AMC. The Km was determined with Boc -QAR-AMC and Tos -GPR-AMC by adding trypsin-1 (0.015 nM), trypsin -2 (0.015 nM), trypsin -3 (0.015 nM) or thrombin (0.19 nM) to a range of substrate concentrations at 37° C. The fluorescence was measured kinetically for 20 min at 37° C on a Tecan F200 multi-plate reader. The results in RFU/min were recalculated by dividing them by the slope of a calibration curve with AMC (0.78 – 10 µM) to obtain results in µmol/L/min. […]

Data set [3] addresses thrombin (Homo sapiens, UniProt P00734). The data set is described as follows: Michaelis-Menten constant of fluorogenic substrates with thrombin. The data set is classed as biochemical. Also noted: thrombin (Sigma-Aldrich); purchased Sigma-Aldrich. Particulars: thrombin 0.19 nM, range of substrate concentrations, 37 °C, fluorescence measured kinetically 20 min, Michaelis-Menten fit, experiment repeated twice. As to the method:
as §1, §2

In data set [4] the target is pancreatic elastase I (Sus scrofa, UniProt P00772). Nature of the data set: Cleavage of peptides by purified pancreatic elastase, MALDI-TOF/TOF. As to conditions: 25 nM protease, 10 µM peptide, 37 °C, time points 2, 5, 10, 30 min. The text has this:
Trypsin-like proteases included in the experiments are trypsin-1, -2 and -3, tryptase (Enzo LifeSciences), thrombin (Sigma-Aldrich) and cathepsin G (Sigma-Aldrich). Trypsin-1, -2 and -3 were produced as described by Koistinen et al. and Wu et al.. Two elastase-like enzymes, neutrophil elastase (Enzo LifeSciences, Farmingdale, NY, USA) and pancreatic elastase I (Sigma-Aldrich) were included as well. All enzymes were from human origin except for pancreatic elastase from porcine pancreas.
Reaction mixtures with purified enzymes were compiled in an identical way. […] Substance P was added as the standard peptide except for the reaction mixtures with substance P or bradykinin as the peptide of interest, where angiotensin II (Bachem) was added.
The TFA mixtures were thawed on ice and desalted using C18 zip-tips (Merck Millipore®, Burlington, MA, USA) with a capacity of 5 µg protein. Retained peptide fragments were eluted directly on the MALDI target plate. Next, 0.5 µL of a 2.5 mg/mL α-cyano-4-hydroxycinnamic acid (Sigma-Aldrich) matrix solution (in 70% acetonitrile, 0.1% TFA) was spotted on top of the sample. A 6-Peptide mixture Kit (AB Sciex, Framingham, MA, USA) containing bradykinin (2–9), angiotensin I, glu1-fibrinopeptide, ACTH (1–17), ACTH (18–39) and ACTH (7–38) was diluted with matrix and spotted on the plate as well.
MS and MS/MS data for peptide fragment identification were obtained with a MALDI-TOF/TOF instrument (4800 MALDI TOF/TOF™, Applied Biosystems, Waltham, MA, USA) and instrument parameters were set using 4000 Series Explorer™ software. MS spectra were recorded in positive reflector mode in a mass range from 500 to 4000 Da and laser intensity of 4500–4800 Hz. The spectra were calibrated using the calibration mixture mentioned above to a mass tolerance of 0.1 Da. MS/MS spectra were recorded with high-energy collision-induced dissociation and the laser intensity was increased by 10%.
Identified fragments were confirmed using the MS/MS spectra and mMass 5.5.0 by Martin Strohalm. The relative intensities of the fragments were calculated as the ratio of the intensity of the peak of interest to the intensity of the peak of the standard peptide.

Substrate in data set [5]: Cc1cc(=O)oc2cc(NC(=O)[C@H](CCCNC(=N)N)NC(=O)[C@H](C)NC(=O)[C@H](CCC(N)=O)NC(=O)OC(C)(C)C)ccc12
The data set is described as follows: Michaelis-Menten constant of fluorogenic substrates with trypsin-2. Particulars: other: trypsin-2 0.015 nM, range of substrate concentrations, 37 °C, fluorescence measured kinetically 20 min, Michaelis-Menten fit, experiment repeated twice. It counts as biochemical, human. As to the method: as §1, §2

Chain of pancreatic elastase I (P00772 27-266): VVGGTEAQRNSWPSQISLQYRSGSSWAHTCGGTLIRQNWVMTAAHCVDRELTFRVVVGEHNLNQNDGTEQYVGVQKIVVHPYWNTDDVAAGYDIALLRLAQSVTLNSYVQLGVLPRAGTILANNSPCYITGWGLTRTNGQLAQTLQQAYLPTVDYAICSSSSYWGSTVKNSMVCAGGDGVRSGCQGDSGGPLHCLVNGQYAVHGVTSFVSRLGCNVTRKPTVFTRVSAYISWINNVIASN

As to `CC(=O)Nc1ccc(OP(=O)(Oc2ccc(NC(C)=O)cc2)C(Cc2ccc(N=C(N)N)cc2)NC(=O)OCc2ccccc2)cc1.Cl` (stereo not shown) [UAMC-00050], in data set [1], the “Effect on intestinal inflammation and permeability” value is “ameliorated intestinal inflammation and permeability”; the “Effect on mRNA expression of PAR4” value was “decreased the mRNA expression of PAR4”.

As for `Cc1cc(=O)oc2cc(NC(=O)[C@H](CCCNC(=N)N)NC(=O)[C@H](C)NC(=O)[C@H](CCC(N)=O)NC(=O)OC(C)(C)C)ccc12` [Boc-QAR-AMC] (Boc-Gln-Ala-Arg-{AMC}), the Km was 4.6 ± 0.3 µM in data set [2] and 2510 ± 285 µM in data set [3].

Consider `CSCC[C@H](NC(=O)[C@H](Cc1ccccc1)NC(=O)CNC(=O)CNC(=O)[C@@H](N)Cc1ccc(O)cc1)C(=O)O` [M-enkephalin, Met-enkephalin], for which the “Incubation time at which the first cleavage or decrease of the full-length peptide was observed, pancreatic elastase” value in data set [4] amounted to 30 min.

As to `CC(C)C[C@H](NC(=O)[C@H](Cc1ccccc1)NC(=O)CNC(=O)CNC(=O)[C@@H](N)Cc1ccc(O)cc1)C(=O)O` [L-enkephalin, Leu-enkephalin], in data set [4], the “Incubation time at which the first cleavage or decrease of the full-length peptide was observed, pancreatic elastase” value is 30 min.

B1: trypsin-2 (Homo sapiens) (protein)
chain: IVGGYICEENSVPYQVSLNSGYHFCGGSLISEQWVVSAGHCYKSRIQVRLGEHNIEVLEGNEQFINAAKIIRHPKYNSRTLDNDILLIKLSSPAVINSRVSAISLPTAPPAAGTESLISGWGNTLSSGADYPDELQCLDAPVLSQAECEASYPGKITNNMFCVGFLEGGKDSCQGDSGGPVVSNGELQGIVSWGYGCAQKNRPGVYTKVYNYVDWIKDTIAANS
notes: made in house
Consider B1, for which the Km in data set [5] worked out at 11.8 ± 0.1 µM.
